# Data as given in patent US11466023B2, “Combination of a Mcl-1 inhibitor and a standard of care treatment for hematologic cancers, uses and pharmaceutical compositions thereof” (LES LABORATOIRES SERVIER, priority 2017, dated 2022).
# Where two headings read alike, the source gives them in different places.
# Legend:
# [1] = tested on: THP-1 AML cell line; experiment: Single agent cell viability (CellTiterGlo); type: cell-based
# Protocol: (§1) Cell lines were cultured at 37° C. in a humidified atmosphere containing 5% CO2 and expanded in T-150 flasks. […] In order to analyse the activity of the compounds as single agents, cells were seeded and treated with nine 2-fold serial dilutions of each compound dispensed individually directly into the cell assay plates. […] All the experiments were performed in triplicates. Luminescence was quantified on a multipurpose plate reader. Single agent IC50s were calculated using standard four-parametric curve fitting.
# [2] = tested on: ML-2 AML cell line; experiment: Single agent cell viability (CellTiterGlo); type: cell-based
# Protocol: as §1
# [3] = tested on: Kasumi-1 AML cell line; experiment: Single agent cell viability (CellTiterGlo); type: cell-based
# Protocol: as §1
# [4] = tested on: EOL-1 AML cell line; experiment: Single agent cell viability (CellTiterGlo); type: cell-based
# Protocol: as §1
# [5] = tested on: KG1a AML cell line; experiment: Single agent cell viability (CellTiterGlo); type: cell-based
# Protocol: as §1
# [6] = tested on: PL-21 AML cell line; experiment: Single agent cell viability (CellTiterGlo); type: cell-based
# Protocol: as §1
# [7] = tested on: MV4; 11 AML cell line; experiment: Single agent cell viability (CellTiterGlo); type: cell-based
# Protocol: as §1
# [8] = tested on: OCI-AML3 AML cell line; experiment: Single agent cell viability (CellTiterGlo); type: cell-based
# Protocol: as §1
# [9] = tested on: KG1 AML cell line; experiment: Single agent cell viability (CellTiterGlo); type: cell-based
# Protocol: as §1
# [10] = tested on: HL-60 AML cell line; experiment: Single agent cell viability (CellTiterGlo); type: cell-based
# Protocol: as §1
# [11] = tested on: Nomo-1 AML cell line; experiment: Single agent cell viability (CellTiterGlo); type: cell-based
# Protocol: as §1
# [12] = tested on: MOLM-13 AML cell line; experiment: Single agent cell viability (CellTiterGlo); type: cell-based
# Protocol: as §1
# [13] = tested on: GDM-1 AML cell line; experiment: Single agent cell viability (CellTiterGlo); type: cell-based
# Protocol: as §1
# [14] = tested on: mononuclear cells from AML patient samples; experiment: Cell viability assay (Sytox blue flow cytometry) in primary AML samples; type: cell-based, human; conditions: combination at 1:1 ratio, read-out: 50% lethal concentration (LC50)
# Protocol: Bone marrow samples from patients with AML were collected after informed consent in accordance with guidelines approved by The Alfred Hospital Human research ethics committee.
# Mononuclear cells were isolated by density-gradient centrifugation Ficoll-Hypaque (GE Healthcare, Australia) density-gradient centrifugation and red cell lysis was performed using 0.156 M NH4Cl, 0.017 M Tris-HCl pH 7.2 as previously described (Rijal et al., Blood 2015, 125, 2815-2824). Cells were then re-suspended in phosphate-buffered saline containing 2% Fetal Bovine serum (FBS; Sigma, Australia). Mononuclear cells were then suspended in RPMI-1640 (GIBCO, Australia) medium containing penicillin and streptomycin (GIBCO) and heat inactivated fetal bovine serum 15% (Sigma). Cells were washed in phosphate-buffered saline (PBS) containing 2% FBS prior to use.
# Freshly purified mononuclear cells from AML patient samples were adjusted to a concentration of 2.5×10^5/mL and 100 μL of cells aliquoted per well into 96 well plates (Sigma). Cells were then treated with idarubicin and Compound 2 over a […] concentration range from 1 nM to 10 μM for 48 hours. For combinations assays, drugs were added at a 1:1 ratio from 1 nM to 10 μM and cells were incubated at 37° C. 5% CO2. Cells were then stained with Sytox blue nucleic acid stain (Invitrogen, Australia) and fluorescence measured by flow cytometric analysis using the LSR-II Fortessa (Becton Dickinson, Australia). FACSDiva software was used for data collection, and FlowJo software for analysis. Blast cells were gated using forward and side scatter properties. Viable cells excluding Sytox blue were determined at 6 concentrations for each drug and the 50% lethal concentration (LC50, in μM) determined.
# [15] = tested on: primary AML samples; conditions: a subset of primary AML samples, 100 nM
# [16] = tested on: normal human CD34+ progenitor cells; conditions: 100 nM
# [17] = THP-1, single agent, 3 days incubation, CellTiterGlo, read-out: IC50
# [18] = ML-2, single agent, 3 days incubation, CellTiterGlo, read-out: IC50
# [19] = Kasumi-1, single agent, 3 days incubation, CellTiterGlo, read-out: IC50
# [20] = EOL-1, single agent, 3 days incubation, CellTiterGlo, read-out: IC50
# [21] = KG1a, single agent, 3 days incubation, CellTiterGlo, read-out: IC50
# [22] = PL-21, single agent, 3 days incubation, CellTiterGlo, read-out: IC50
# [23] = MV4, 11, single agent, 3 days incubation, CellTiterGlo, read-out: IC50
# [24] = OCI-AML3, single agent, 3 days incubation, CellTiterGlo, read-out: IC50
# [25] = KG1, single agent, 3 days incubation, CellTiterGlo, read-out: IC50
# [26] = HL-60, single agent, 3 days incubation, CellTiterGlo, read-out: IC50
# [27] = Nomo-1, single agent, 3 days incubation, CellTiterGlo, read-out: IC50
# [28] = MOLM-13, single agent, 3 days incubation, CellTiterGlo, read-out: IC50
# [29] = GDM-1, single agent, 3 days incubation, CellTiterGlo, read-out: IC50
compound,measurement,setting,value
"COc1ccccc1-c1nccc(COc2ccccc2C[C@@H](Oc2ncnc3sc(-c4ccc(F)cc4)c(-c4ccc(OCCN5CCN(C)CC5)c(Cl)c4C)c23)C(=O)O)n1 [Compound 1, (2R)-2-{[(5Sa)-5-{3-chloro-2-methyl-4-[2-(4-methylpiperazin-1-yl)ethoxy]phenyl}-6-(4-fluorophenyl)thieno[2,3-d]pyrimidin-4-yl]oxy}-3-(2-{[2-(2-methoxyphenyl)pyrimidin-4-yl]methoxy}phenyl)propanoic acid]",IC50,[1]; [17],0.017 µM
same,IC50,[2]; [18],0.005 µM
same,IC50,[3]; [19],0.033 µM
same,IC50,[4]; [20],0.001 µM
same,IC50,[5]; [21],2 µM
same,IC50,[6]; [22],0.065 µM
same,IC50,[7]; [23],0.001 µM
same,IC50,[8]; [24],0.146 µM
same,IC50,[9]; [25],0.39 µM
same,IC50,[10]; [26],0.025 µM
same,IC50,[11]; [27],0.013 µM
same,IC50,[12]; [28],0.002 µM
same,IC50,[13]; [29],0.008 µM
"Cc1c(-c2c(-c3ccc(F)o3)sc3ncnc(O[C@H](Cc4ccccc4OCc4ccnn4CC(F)(F)F)C(=O)O)c23)ccc(OCCN2CCN(C)CC2)c1Cl [Compound 2, (2R)-2-{[(5Sa)-5-{3-chloro-2-methyl-4-[2-(4-methylpiperazin-1-yl)ethoxy]phenyl}-6-(5-fluorofuran-2-yl)thieno[2,3-d]pyrimidin-4-yl]oxy}-3-(2-{[1-(2,2,2-trifluoroethyl)-1H-pyrazol-5-yl]methoxy}phenyl)propanoic acid]",CC50,"[14]; Patient AML 6200840, 48 hours",0.227 µM
same,CC50,"[14]; Patient AML AH0131936, 48 hours",10.7 µM
same,CC50,"[14]; Patient AML AH0465385, 48 hours",23 µM
same,CC50,"[14]; Patient AML AH0607688, 48 hours",22.9 µM
same,CC50,"[14]; Patient AML AH0979006, 48 hours",0.0618 µM
same,CC50,"[14]; Patient AML AH1081582, 48 hours",4.36 µM
same,CC50,"[14]; Patient AML AH1228742, 48 hours",5360 µM
same,CC50,"[14]; Patient AML AH6120264, 48 hours",0.679 µM
same,CC50,"[14]; Patient AML AH6181414_2, 48 hours",15.5 µM
same,CC50,"[14]; Patient AML AH6202849, 48 hours",13 µM
same,CC50,"[14]; Patient AML AH6208160, 48 hours",21.6 µM
same,CC50,"[14]; Patient AML AH6208654, 48 hours",9.42 µM
same,CC50,"[14]; Patient AML AH6210946, 48 hours",0.0556 µM
same,CC50,"[14]; Patient AML AH6214498, 48 hours",0.000868 µM
same,CC50,"[14]; Patient AML AH6217528, 48 hours",1.16 µM
same,CC50,"[14]; Patient AML AH6219953, 48 hours",38.8 µM
same,CC50,"[14]; Patient AML AH6220847, 48 hours",0.21 µM
same,CC50,"[14]; Patient AML AH6223646, 48 hours",0.148 µM
same,CC50,"[14]; Patient AML AH6224104, 48 hours",608 µM
same,CC50,"[14]; Patient AML AH6229985, 48 hours",0.00483 µM
same,CC50,"[14]; Patient AML AH6607085, 48 hours",0.143 µM
same,CC50,"[14]; Patient AML AH6615742, 48 hours",14.5 µM
same,CC50,"[14]; Patient AML AH6627892, 48 hours",14.2 µM
same,IC50,[1]; [17],0.051 µM
same,IC50,[2]; [18],0.022 µM
same,IC50,[3]; [19],0.066 µM
same,IC50,[4]; [20],0.002 µM
same,IC50,[5]; [21],2.2 µM
same,IC50,[6]; [22],0.238 µM
same,IC50,[7]; [23],0.001 µM
same,IC50,[8]; [24],0.34 µM
same,IC50,[9]; [25],0.413 µM
same,IC50,[10]; [26],0.086 µM
same,IC50,[11]; [27],0.022 µM
same,IC50,[12]; [28],0.004 µM
same,IC50,[13]; [29],0.027 µM
same,clonogenic growth,[15],resistant
same,clonogenic growth,[16],resistant
"Nc1ncn([C@H]2C[C@H](O)[C@@H](CO)O2)c(=O)n1 [Decitabine, decitabine]",IC50,"[1]; Homo sapiens, THP-1, 72 h",> 30 µM
same,IC50,[2]; 72 h,14 µM
same,IC50,"[3]; Homo sapiens, Kasumi 1, 72 h",5.5 µM
same,IC50,"[4]; Homo sapiens, EOL1, 72 h",0.49 µM
same,IC50,"[5]; Homo sapiens, KG-1a, 72 h",14 µM
same,IC50,"[6]; PL-21, 72 h",> 5 µM
same,IC50,"[7]; Homo sapiens, MV4-11, 72 h",0.4 µM
same,IC50,"[8]; Homo sapiens, OCI-AML-3, 72 h",8 µM
same,IC50,[9]; 72 h,5.8 µM
same,IC50,"[10]; Homo sapiens, HL-60, 72 h",14 µM
same,IC50,"[11]; Homo sapiens, NOMO-1, 72 h",> 5 µM
same,IC50,"[12]; Homo sapiens, MOLM-13, 72 h",0.4 µM
same,IC50,"[13]; Homo sapiens, GDM-1, 72 h",41 µM
